According to publication PMC3254785 (2011):
pKd: −log10 of the molar value.

How the values were obtained:
Ns H-NOX = Ns H-NOX (Nostoc sp. PCC 7120 = FACHB-418, UniProt A0ACD6B960); experiment: biochemical
[1] = target: T1, soluble guanylyl cyclase (sGC) (Homo sapiens, UniProt Q02153); experiment: anaerobic; type: binding
T1 sequence (Q02153 1-619): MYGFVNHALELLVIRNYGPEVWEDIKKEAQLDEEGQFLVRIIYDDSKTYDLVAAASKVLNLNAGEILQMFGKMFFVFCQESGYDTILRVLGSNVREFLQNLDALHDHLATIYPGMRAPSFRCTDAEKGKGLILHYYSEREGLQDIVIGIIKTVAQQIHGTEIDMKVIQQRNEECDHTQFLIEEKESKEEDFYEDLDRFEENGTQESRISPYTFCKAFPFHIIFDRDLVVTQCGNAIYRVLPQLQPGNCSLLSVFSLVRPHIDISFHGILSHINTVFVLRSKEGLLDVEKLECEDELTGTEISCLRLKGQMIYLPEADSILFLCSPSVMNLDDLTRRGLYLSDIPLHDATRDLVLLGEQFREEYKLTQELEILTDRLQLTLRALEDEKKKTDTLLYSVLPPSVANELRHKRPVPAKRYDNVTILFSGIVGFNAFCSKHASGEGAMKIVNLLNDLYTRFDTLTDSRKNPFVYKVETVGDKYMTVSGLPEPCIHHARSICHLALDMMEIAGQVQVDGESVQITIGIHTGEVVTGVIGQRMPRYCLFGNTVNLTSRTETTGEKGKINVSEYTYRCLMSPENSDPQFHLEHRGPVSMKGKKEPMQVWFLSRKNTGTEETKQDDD
T1 sequence (Q02108 1-690 partner): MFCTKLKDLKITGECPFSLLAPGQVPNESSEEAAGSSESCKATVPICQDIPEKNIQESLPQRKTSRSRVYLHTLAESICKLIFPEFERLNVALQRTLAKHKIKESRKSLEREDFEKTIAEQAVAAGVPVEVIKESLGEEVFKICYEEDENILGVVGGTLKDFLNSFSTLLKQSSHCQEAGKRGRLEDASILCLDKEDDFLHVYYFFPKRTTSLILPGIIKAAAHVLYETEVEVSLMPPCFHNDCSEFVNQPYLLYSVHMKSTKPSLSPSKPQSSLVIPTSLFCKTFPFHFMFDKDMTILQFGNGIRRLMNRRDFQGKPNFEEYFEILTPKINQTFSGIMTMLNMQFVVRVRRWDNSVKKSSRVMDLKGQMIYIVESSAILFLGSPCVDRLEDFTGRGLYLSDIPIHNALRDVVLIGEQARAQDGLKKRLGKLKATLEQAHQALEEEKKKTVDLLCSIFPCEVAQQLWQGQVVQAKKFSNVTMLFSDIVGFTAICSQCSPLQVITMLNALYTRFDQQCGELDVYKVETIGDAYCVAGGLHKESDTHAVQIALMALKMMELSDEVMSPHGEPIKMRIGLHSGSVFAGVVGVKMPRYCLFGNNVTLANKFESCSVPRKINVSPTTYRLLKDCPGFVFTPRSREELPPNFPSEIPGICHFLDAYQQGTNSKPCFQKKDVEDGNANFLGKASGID

Sequence of Ns H-NOX (A0ACD6B960 1-189): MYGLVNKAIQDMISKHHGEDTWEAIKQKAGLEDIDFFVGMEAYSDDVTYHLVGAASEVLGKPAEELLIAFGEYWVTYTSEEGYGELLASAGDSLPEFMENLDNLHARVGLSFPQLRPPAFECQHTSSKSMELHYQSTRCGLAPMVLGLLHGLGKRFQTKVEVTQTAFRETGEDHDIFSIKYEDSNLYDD

O=O [O2]
pKd (Ns H-NOX): 1.89

[N]=O [NO]
pKd [1]: 7.27
